Read-outs that look alike come from different tables or passages of the source.
Legend:
[1] = Water vapor adsorption/desorption test; format: physicochemical; conditions: water vapor adsorption/desorption curve, adsorption temperature 298 K
Excerpt: A water vapor adsorption/desorption curve was plotted for the (2R,4R) monatin monosodium salt hydrate crystals (A) obtained in Example 1. The measurement conditions were as follows. The measured values are given in FIG. 5. • Device: Automatic vapor adsorption measuring device BELSORP18 made by Bel Japan Inc. • Measurement method: Volumetric gas adsorption method
• Adsorbed gas: H2O • Air thermostat temperature (K): 353 • Adsorption temperature (K): 298 • Saturation vapor pressure (kPa): 3.169 • Adsorption cross-sectional area (nm^2): 0.125 • Maximum adsorption pressure (relative pressure P/PO): desorption: 0.90; adsorption: 0.95 • Minimum adsorption pressure (relative pressure P/PO): desorption: 0.10; adsorption: 0.05 • Equilibration period: 500 s

[2] = Sweetness intensity by panelists relative to 5 percent sucrose aqueous solution; format: in vivo; conditions: average of values provided by seven panelists relative to 5 percent sucrose aqueous solution
Excerpt: Sweetness intensity: 2,700-fold (average of values provided by seven panelists relative to 5 percent sucrose aqueous solution)

[3] = for Rate of decomposition over time into the decomposition product X (lactone) / Rate of decomposition over time into the decomposition product Y (lactam): storage 120° C., open vial, HPLC area ratio relative to monatin; for Comparison of decomposition rates ((b)/(a)), decomposition product X (lactone) / Comparison of decomposition rates ((b)/(a)), decomposition product Y (lactam): Comp. Ex. 1 (b) relative to Example 4 (a), 120° C.
Method: A 50 mg quantity of the crystals of Example 4 and an identical quantity of the crystals of Comparative Example 1 were placed in separate 4 mL vials and stored at a temperature of 120° C. During this storage, the vials were left open. Following storage periods of 3 hours, 7 hours, and 24 hours, 2 mg of sample was removed and the rate of decomposition of the samples was determined by HPLC. Specifically, decomposition product X was a lactone compound (RT=21 minutes) and decomposition product Y was a lactam compound (RT=26 minutes). The individual area ratios (percentages) were calculated relative to the area of monatin.

[4] = 24 hr, listed as Comparative Example 1

Compound	Most stable hydrate [1]	Sweetness intensity [2]	Rate of decomposition over time into the decomposition product X (lactone) ([3]; 0 hr) [%]	Rate of decomposition over time into the decomposition product Y (lactam) ([3]; 0 hr) [%]	Rate of decomposition over time into the decomposition product X (lactone) ([3]; 3 hr) [%]	Rate of decomposition over time into the decomposition product Y (lactam) ([3]; 3 hr) [%]	Rate of decomposition over time into the decomposition product X (lactone) ([3]; 7 hr) [%]	Rate of decomposition over time into the decomposition product Y (lactam) ([3]; 7 hr) [%]	Rate of decomposition over time into the decomposition product X (lactone) ([3]; 24 hr) [%]	Rate of decomposition over time into the decomposition product Y (lactam) ([3]; 24 hr) [%]	Comparison of decomposition rates ((b)/(a)), decomposition product X (lactone) ([3]; 3 hr)	Comparison of decomposition rates ((b)/(a)), decomposition product Y (lactam) ([3]; 3 hr)	Comparison of decomposition rates ((b)/(a)), decomposition product X (lactone) ([3]; 7 hr)	Comparison of decomposition rates ((b)/(a)), decomposition product Y (lactam) ([3]; 7 hr)	Comparison of decomposition rates ((b)/(a)), decomposition product X (lactone) ([3]; 24 hr)	Comparison of decomposition rates ((b)/(a)), decomposition product Y (lactam) ([3]; 24 hr)	Comparison of decomposition rates ((b)/(a)), decomposition product X (lactone) [3, 4] [fold]	Comparison of decomposition rates ((b)/(a)), decomposition product Y (lactam) [3, 4] [fold]
NC(CC(O)(Cc1c[nH]c2ccccc12)C(=O)O)C(=O)[O-].[Na+] [Example 1, (2R,4R) Monatin Monosodium Salt Hydrate Crystals (A)]	trihydrate																	
N[C@H](C[C@](O)(Cc1c[nH]c2ccccc12)C(=O)O)C(=O)[O-].O.[Na+] [Example 4, (2R,4R) Monatin Monosodium Salt Monohydrate Crystals (B)]		2,700 fold	0	0	0.11	0.11	0.23	0.21	0.24	0.38								
(2R,4R) monatin monosodium salt 0.2 ethanolate [Comp. Ex. 1]			0	0	3.38	2.08	4.64	3.63	6.67	7.46	30-fold	19-fold	21-fold	17-fold	27-fold	20-fold	27	20
